Test results taken from article PMC11748620, “Evaluation of maSSS/maSES-PEG2-RM26 for their potential therapeutic use after labeling with Re-188. Could their [^99mTc]Tc-labeled counterparts be used to estimate dosimetry?” (EJNMMI Radiopharmacy and Chemistry, 2025).

System: PC-3 xenografts
Test: Ex vivo biodistribution in PC-3 xenograft bearing mice
Parameters: species or system BALB/C nu/nu mice
Settings: mice bearing PC-3 xenografts, 4 h pi
From the text: Animal studies were in compliance with the European guidelines for laboratory animal protection. BALB/C nu/nu mice were used and the experimental protocols were approved by the ethics committee for animal research in Uppsala (Sweden); permit number 00473/21.
The biodistribution profiles and tumor targeting of maSSS-/SES-PEG2-RM26, labeled with Re-188 or Tc-99 m, were compared head-to-head in the same batch of animals, inoculated with the same PC-3 cells-suspension. After acclimatization, animals were inoculated subcutaneously (right hind leg) with 7 × 10^6 freshly harvested PC-3 cells per animal, in PBS. After approximately four weeks solid tumors were present at the inoculation sites and the animals were randomly divided in groups of four.
For the ex vivo biodistribution experiments animals were injected via the tail vein with 50 pmol (120 kBq for Re-188 and 60 kBq for Tc-99 m) of the radiopeptide under evaluation, in 100 µl solution in PBS supplemented with 1% w/v BSA. Animals were euthanized at 1 h and 4 h post injection (pi) and tissues / organs of interest and tumors were collected, weighted and their radioactivity content was measured on a gamma counter. Each group comprised by four animals (n = 4).
Statistical analysis was performed using GraphPad Prism, employing a two-way ANOVA test with Tuckey’s posthoc analysis.

Row | ratio of activity uptake in caecum, Re-188 over Tc-99 m [fold] | Compound
1 | 2.3 | CC(C)C[C@H](NC(=O)C[C@H](O)[C@H](CC(C)C)NC(=O)[C@H](Cc1c[nH]cn1)NC(=O)CNC(=O)[C@@H](NC(=O)[C@H](C)NC(=O)[C@H](Cc1c[nH]c2ccccc12)NC(=O)[C@H](CCC(N)=O)NC(=O)[C@@H](Cc1ccccc1)NC(=O)COCCOCCNC(=O)[C@H](CO)NC(=O)[C@H](CCC(=O)O)NC(=O)[C@H](CO)NC(=O)CS)C(C)C)C(N)=O [maSES-PEG2-RM26, mercaptoacetyl-Ser-Glu-Ser-PEG2-RM26]
2 | 1.4 | CC(C)C[C@H](NC(=O)C[C@H](O)[C@H](CC(C)C)NC(=O)[C@H](Cc1c[nH]cn1)NC(=O)CNC(=O)[C@@H](NC(=O)[C@H](C)NC(=O)[C@H](Cc1c[nH]c2ccccc12)NC(=O)[C@H](CCC(N)=O)NC(=O)[C@@H](Cc1ccccc1)NC(=O)COCCOCCNC(=O)[C@H](CO)NC(=O)[C@H](CO)NC(=O)[C@H](CO)NC(=O)CS)C(C)C)C(N)=O [maSSS-PEG2-RM26, mercaptoacetyl-Ser-Ser-Ser-PEG2-RM26]
